Measured values as given in publication PMC8876231, “Analogues of Natural Chalcones as Efficient Inhibitors of AKR1C3” (Metabolites, 2022).
Several values for one entry are separate records, joined by “and”; a condition that tells them apart may be missing. Equal values may be shown once.

Assays:
HSD17B1 = target: T1, HSD17B1 (Homo sapiens, UniProt P14061); assay: HSD17B1 inhibition assay (estrone to oestradiol); format: biochemical; details: 10 µM compound; mean ± SD
T1 construct: GST (own knowledge: pGEX vectors encode N-terminal GST); made in house; host or cells: E. coli BL21 DE3 Codon Plus RP
T1 sequence (P14061 1-328): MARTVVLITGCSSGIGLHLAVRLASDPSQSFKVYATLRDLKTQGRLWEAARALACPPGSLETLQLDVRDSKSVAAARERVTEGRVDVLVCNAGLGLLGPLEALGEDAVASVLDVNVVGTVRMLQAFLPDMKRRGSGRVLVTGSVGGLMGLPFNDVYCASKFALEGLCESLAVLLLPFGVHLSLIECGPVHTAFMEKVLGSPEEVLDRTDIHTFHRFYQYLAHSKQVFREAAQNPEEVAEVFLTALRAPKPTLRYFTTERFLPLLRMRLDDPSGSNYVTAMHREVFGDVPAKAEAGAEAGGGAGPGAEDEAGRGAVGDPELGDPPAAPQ
From the text: (§1) For enzymatic assays and inhibitor testing, all enzymes were cloned into bacterial or mammalian expression vectors. AKR1C3 and the human hydroxysteroid dehydrogenases HSD17B1, HSD17B2, HSD17B4 (SDR domain), HSD17B7, and HSD17B10 were cloned into a pGEX vector as described in [71, 72]. The coding sequences for AKR1C1, AKR1C2, and AKR1C4 were cloned by Gateway technology into the pcDNA3-N-MycDest vector according to the manufacturer’s instructions (Life Technologies, Carlsbad, CA, USA). The p11 plasmid coding for HSD17B14 (S205 variant) was a gift from Udo Opperman SGC Oxford, UK. For assays with HSD17B3, HEK293 cells stably expressing HSD17B3 were used. Enzymes were expressed in E. coli BL21 DE3 or E. coli BL21 DE3 Codon Plus RP (Stratagene, San Diego, CA, USA) or in HEK293 cells as described in [71, 72, 73]. Bacterial and cell pellets were stored at −20 °C and −80 °C, respectively, until use.
(§2) Inhibition assays were carried out as described in [71, 74]. […] For a detailed assay setup, see Supplementary Table S6. The incubation at 37 °C was stopped with 0.21 M ascorbic acid in methanol:acetic acid 99:1 (v:v) after the time needed to convert approximately 30% of the substrate in a control assay with 1% DMSO, without inhibitor candidate. Substrates and products were extracted from the reaction mixture by solid-phase extraction using C18 cartridges (Phenomenex, Aschaffenburg, Germany) and separated by RP–HPLC in a Beckman–Coulter HPLC Gold system, using the Luna 5 µm C18(2), 125 × 4.0 mm column (Phenomenex). The mobile phases used were H2O:ACN (57:43 (v:v); for assays of estrone (E1) to oestradiol (E2), E2 to E1, and ∆4-androstene-3,17-dione to testosterone conversion), H2O:ACN (49:51 (v:v); for assays of progesterone to 20α-hydroxyprogesterone conversion), and H2O:MeOH (35:65 (v:v) for assays of dihydrotestosterone (DHT) to 3α-androstanediol conversion) at a flow rate of 1 mL/min. Radioactivity was detected by online scintillation counting by using a radioactivity monitor (LB506D, Berthold Technologies, Bad Wildbad, Germany). Conversion of substrates to products was determined by integration of the peak area of the substrate and product peaks in percent. For calculation of inhibition, the conversion of control assay (assay without inhibitor) was set to 0% inhibition. All assays were run in triplicates, and mean values ± SD are reported.
(§3) Table S6: Activity assay setup […]
(§4) E1: estrone; E2: 17β-estradiol, A: Δ4-androstene-3,17-dione; T: testosterone, P: progesterone, 20αOHP: 20α-hydroxyprogesterone, DHT: dihydrotestosterone, 3α-Adiol: 3α-androstanediol, NaPi: 100 mM Na-phosphate buffer; PI: C0mplete protease inhibitor (Roche);. E.coli - Expression in E.coli BL21 DE3 Codon Plus RP except E.coli BL21 DE3 […]
(§5) application to antiparasitic and natural product synthesis. Eur J Org Chem […]
(§6) Synthesis of Xanthohumol analogues and discovery of potent thioredoxin reductase inhibitor as potential anticancer agent. J Med Chem 2015, 58,

AKR1C4 = target: T2, AKR1C4 (Homo sapiens, UniProt P17516); assay: AKR1C4 inhibition assay (DHT to 3α-androstanediol); format: biochemical; details: 10 µM compound; mean ± SD
T2 construct: Myc (N); expressed in transfected cells; host or cells: HEK293
T2 sequence (P17516 1-323): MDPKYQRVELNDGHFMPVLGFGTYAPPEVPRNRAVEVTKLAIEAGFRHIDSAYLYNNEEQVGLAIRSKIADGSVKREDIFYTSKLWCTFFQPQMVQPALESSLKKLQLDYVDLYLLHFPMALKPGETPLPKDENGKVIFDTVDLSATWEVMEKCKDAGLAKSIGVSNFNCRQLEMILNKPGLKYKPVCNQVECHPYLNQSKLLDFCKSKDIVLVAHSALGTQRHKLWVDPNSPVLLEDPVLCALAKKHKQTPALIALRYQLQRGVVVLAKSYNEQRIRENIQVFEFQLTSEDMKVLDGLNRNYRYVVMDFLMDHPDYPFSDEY
From the text: as §1, §2, §3, §4, §5, §6

| Inhibition of HSD17B1 at 10 µM in % (HSD17B1) | Inhibition of AKR1C4 at 10 µM in % (AKR1C4) | inhibition at 10 µM (HSD17B1) | inhibition at 10 µM (AKR1C4) | Structure (SMILES) |
| --- | --- | --- | --- | --- |
| 46.5 ± 8.8% | 25.0 ± 1.5% | – | – | COc1ccc(/C=C/C(=O)c2c(O)cc(O)cc2OC)cc1 [Compound 18] |
| 42.3 ± 5.3% | 93.3 ± 0.7% and > 75% | – | – | COc1ccc(/C=C/C(=O)c2c(O)cc(O)cc2O)cc1 [Compound 19] |
| 51.8 ± 5.1% | 79.6 ± 0.2% and > 75% | – | – | Cc1cccc(/C=C/C(=O)c2c(O)cc(O)cc2O)c1 [Compound 20] |
| 42.8 ± 9.1% | 91.6 ± 1.5% and > 75% | – | – | Cc1ccc(/C=C/C(=O)c2c(O)cc(O)cc2O)cc1 [Compound 21] |
| – | – | 53.3% | 97 ± 0.9% | O=C(/C=C/c1ccc(Cl)cc1Cl)c1c(O)cc(O)cc1O [Compound 23, 2,4-dichloro-2′,4′,6′-trihydroxychalcone] |

| Structure (SMILES) | Inhibition of HSD17B1 at 10 µM in % (HSD17B1) | Inhibition of AKR1C4 at 10 µM in % (AKR1C4) | inhibition at 10 µM (HSD17B1) | inhibition at 10 µM (AKR1C4) |
| --- | --- | --- | --- | --- |
| COc1cc(O)cc(O)c1C(=O)/C=C/c1ccc(Cl)cc1Cl [Compound 25] | – | 41.6 ± 1.8% | – | – |
